Counter-ions that a name gives are not always drawn. Values belong to the molecule of their own block, whether it stands above or below them.
Tests used:
[1] = DPPH free radical-scavenging/antioxidant assay; assay type: biochemical; conditions: 50 μM DPPH in 80% methanol; 24 h time point; read-out: EC50 (concentration at which a compound reduces by 50% the peak absorbance of DPPH at 520 nm)
Experimental: Nitrone compounds of the present invention were tested for their free-radical scavenging/antioxidant activity in an in vitro assay that is accepted by those skilled in the art as a model for conditions involving the generation of free radicals. The assay is based on a reaction between a free-radical donor, 2,2-diphenyl-1-picrylhydrazyl (DPPH), and a radical scavenger/antioxidant to be tested for free-radical scavenging activity. Upon donation of the free-radical electron to the purported radical scavenger, the peak visible absorbance of DPPH (515-520 nm) decreases so that optical density readings at this part of the visual spectrum reflect the progression of the following reaction:
where AH is a hypothetical radical scavenger/antioxidant. The assay is based on a protocol originally detailed in Brand-Williams, W. et al., 1995, Use of a Free Radical Method to Evaluate Antioxidant Activity, Lebensm. Wiss. Technol., 28:25-30, with further modifications described in L. R. Fukumoto and G. Mazza, 2000, Assessing Antioxidant and Prooxidant Activities of Phenolic Compounds, J. Agric. Food Chem., 48:3597-3604.
The antioxidant assay was performed using Perkin-Elmer 96-well, clear-bottom, black-wall plates (ordered from E & K Scientific Products) and a Tecan Safire absorbance plate reader. The positive controls were Trolox (6-hydroxy-2,5,7,8-tetramethylchromane-2-carboxylic acid, Sigma-Aldrich), BHA (2(3)-tert-butylhydroquinone monomethyl ether, Sigma-Aldrich), PBN (C-(phenyl)-N-(tert-butyl)nitrone, Sigma-Aldrich) and S-PBN (C-(2-sulfophenyl)-N-(tert-butyl)nitrone, sodium salt, prepared according to E. G. Janzen and R. V. Shetty, 1979, Tetrahedron Lett., 35: 3229-32), and the negative control (i.e., vehicle) was DMSO. In brief, 2 μL of 100× DMSO stock of the desired final concentration of each control or nitrone compound to be tested in the same batch was added to a separate well. To each well was then added 198 μL of a freshly made 50 μM DPPH (Sigma-Aldrich) solution in 80% methanol using a multi-channel pipette. The absorbance was immediately read on the plate reader at 520 nm and thereafter read periodically to assess kinetics until all reactions reached completion (i.e., steady state). Since the steady-state point was 24 h, the assay results are shown from the 24 h time point. The absorbance at 520 nm (OD) was plotted versus the concentrations of the controls and nitrone compounds to assess dose-response and interpolate the EC50 values of the controls and test compounds.

[2] = Pharmacokinetic evaluation following intravenous and oral administration in rats; assay type: in vivo; conditions: male, Sprague-Dawley; for Cmax / Tmax / bioavailability: 5 mg/kg; for Cmax: rat plasma; for Cmax / Tmax: oral gavage, 2 mg/mL at 2.5 mL/kg; for clearance / Vd / Tmax / bioavailability / half-life: plasma, rat; for clearance / Vd / half-life: 1 mg/kg; for clearance / Vd: intravenous administration, 1 mg/mL at 1.0 mL/kg; for clearance: read-out: CI (clearance) (converted); for Vd: read-out: Vd (volume of distribution); for bioavailability: po 2 mg/mL at 2.5 mL/kg vs iv 1 mg/mL at 1.0 mL/kg, dose-normalized, read-out: F (%) oral bioavailability; for half-life: intravenous, read-out: T1/2 elimination half life (converted)
Experimental: Male Sprague-Dawley rats were given at least 24 hours acclimation before experiment initiation. During acclimation period, all animals received food and water ad libitum. However, food (not water) was removed from the animal's cages up to 12 hours before initiation of the experiment. During the first 4 hours of experimentation, the animals received only water ad libitum. Two to three animals for iv and three animals for oral administration were tested. For iv formulation nitrone compounds of this invention were dissolved (1 mg/mL) in a mixture of 5% dimethyl acetamide (v/v), 0 to 4% Tween 80 (v/v), 10 to 40% PEG 400 (v/v) and the rest percentage of water (v/v). For oral formulation nitrone compounds of this invention were dissolved (2 mg/mL) in a mixture of 4% of 10% Tween in water and 96% of 0.5% carboxymethyl cellulose (medium viscosity) in water; or 4% of 10% Tween in water, 48% of 0.5% carboxymethyl cellulose (medium viscosity) in water, and 48% of 0.5% Hydroxypropyl Methylcellulose/0.2% Sodium Lauryl Sulfate in water. These formulations were stored at 5° C. until the experiment. Formulations were then stir-mixed at least half an hour before dosing. Exactly 200 μL of each left-over formulation was diluted with CH3CN/H2O for concentration analysis. The animals were weighed before dosing. The body weight was used to calculate the true dose for each animal:
IV dosing: • Dose volume (mL)=1.0 mL/kg The intravenous dose was administered through the jugular vein catheter or tail vein in less than 1 minute.
PO dosing: • Dose volume (mL)=2.5 mL/kg The oral dose was administered by oral gavage.
For IV dosing, blood samples were collected (using a pre-heparinized syringe) via the carotid artery or jugular vein catheter at t=2, 5, 15, 30, 60, 120, 180, 360, and 480 minutes post dosing. For PO dosing, blood samples were collected (using a pre-heparinized syringe) via the carotid artery or jugular vein catheter before dosing and at t=5, 15, 30, 60, 120, 180, 360, and 480 minutes post dosing. For some nitrone compounds a 1440 minutes (24 hours) sample was also taken for both IV and PO administrations. About 250 μL of blood was obtained at each time point from the animals. Equal volumes of 0.9% normal saline were replaced to prevent dehydration. The whole blood samples were maintained on ice until centrifugation. Blood samples were then centrifuged at 14,000 rpm for 10 minutes at 4° C. and the upper plasma layer transferred into a clean vial and stored at −80° C. The resulting plasma samples were then analyzed by mass spectroscopy using standard methods.
All the samples from above assays were analyzed on a PE-Sciex API 3000 triple quadrupole with a Turbo Ion Spray source. Nitrone compounds of this invention were separated from the matrix via a linear gradient reverse-phase chromatography using a C18 column, such as Thermo BDS Hypersil C18 (100×4.6 mm, 5 micron particle, 120A pore size). The mobile Phases were:
Nitrone compounds were detected by the mass spectrometer in the positive ion multiple reaction monitoring mode (MRM). For quantitative analysis, a standard curve was prepared by spiking a stock solution of the nitrone compound to the appropriate matrix to achieve a quantitation curve range and analyzed the standards in the same manner as the samples.
Pharmacokinetic parameters of the aryl nitrone compounds were determined by a noncompartmental analysis using WinNonlin-Pro (Version 4.1, Pharsight Corporation). Average and standard deviation of the parameters were calculated using standard formulas in Microsoft Excel.

Molecule: 2(3)-tert-butylhydroquinone monomethyl ether [BHA, reference compound]
EC50 [1]: < 10 µM

Molecule: COC(=O)c1c(/C=[N+](\[O-])C2CCCCC2)cc(OC)cc1OC [Compound 5, N-Cyclohexyl-C-[2-(methoxycarbonyl)-3,5-dimethoxyphenyl]-nitrone]
EC50 [1]: 100 to 500 µM

Molecule: COC(=O)c1c(/C=[N+](\[O-])Cc2ccccc2)cc(OC)cc1OC [Compound 6, N-Benzyl-C-[2-(methoxycarbonyl)-3,5-dimethoxyphenyl]-nitrone]
EC50 [1]: 100 to 500 µM

Molecule: CC(C)(C)/[N+]([O-])=C/c1ccccc1C(=O)O [Compound 7, N-(tert-Butyl)-C-(2-carboxyphenyl)nitrone]
EC50 [1]: 100 to 500 µM

Molecule: O=C(O)c1ccccc1/C=[N+](\[O-])C1CCCCC1 [Compound 8, N-Cyclohexyl-C-(2-carboxyphenyl)nitrone]
EC50 [1]: 10 to 100 µM

Molecule: COc1cc(/C=[N+](\[O-])C2CCCCC2)c(C(=O)O)c(OC)c1 [Compound 11, N-Cyclohexyl-C-(2-carboxy-3,5-dimethoxyphenyl)nitrone]
EC50 [1]: 10 to 100 µM

Molecule: CN(C)C(=O)c1ccccc1/C=[N+](\[O-])C(C)(C)C [Compound 16, N-(tert-Butyl)-C-[2-(N,N-dimethylcarbamoyl)phenyl]nitrone]
EC50 [1]: 100 to 500 µM

Molecule: CCNS(=O)(=O)c1ccc(/C=[N+](\[O-])C(C)(C)C)cc1 [Compound 24, N-(tert-Butyl)-C-[4-(ethylsulfamoyl)phenyl]nitrone]
EC50 [1]: > 1000 µM
Cmax [2]: 198 ng/mL
clearance [2]: 59 mL/min/kg
Vd [2]: 2.58 L/kg
Tmax [2]: 12 min
bioavailability [2]: 7.19%
half-life [2]: 31.2 min

Molecule: CC(C)(C)/[N+]([O-])=C/c1ccc(S(=O)(=O)N2CCCCC2)cc1 [Compound 28, N-(tert-Butyl)-C-[4-(piperidine-1-sulfonyl)phenyl]nitrone]
EC50 [1]: > 1000 µM
Cmax [2]: 134 ng/mL
clearance [2]: 19 mL/min/kg
Vd [2]: 19.9 L/kg
Tmax [2]: 64.8 min
bioavailability [2]: 13.8%
half-life [2]: 782 min

Molecule: CC(C)(C)/[N+]([O-])=C/c1ccc(S(=O)(=O)N2CCCC2)cc1 [Compound 29, N-(tert-Butyl)-C-[4-(pyrrolidine-1-sulfonyl)phenyl]nitrone]
EC50 [1]: > 1000 µM
Cmax [2]: 114 ng/mL
clearance [2]: 38 mL/min/kg
Vd [2]: 0.97 L/kg
Tmax [2]: 11.4 min
bioavailability [2]: 4.3%
half-life [2]: 17.4 min

Molecule: COC(=O)c1[nH]c2ccccc2c1/C=[N+](\[O-])C1CCCCC1 [Compound 78, N-Cyclohexyl-C-[2-(methoxycarbonyl)-1H-indol-3-yl]nitrone]
EC50 [1]: > 1000 µM

Molecule: COC(=O)c1[nH]c2ccccc2c1/C=[N+](\[O-])Cc1ccccc1 [Compound 79, N-Benzyl-C[2-(methoxycarbonyl)-1H-indol-3-yl]nitrone]
EC50 [1]: > 1000 µM

Molecule: CC(C)(C)[N+]([O-])=Cc1ccccc1S(=O)(=O)O [SPBN, C-(2-sulfophenyl)-N-(tert-butyl)nitrone, sodium salt, reference compound]
EC50 [1]: > 1000 µM

Results, then the molecule that gave them:

EC50 [1]: 500 to 1000 µM
Molecule: COC(=O)c1ccccc1/C=[N+](\[O-])C(C)(C)C [Compound 1, N-(tert-Butyl)-C[2-(methoxycarbonyl)phenyl]nitrone]

EC50 [1]: > 1000 µM
Molecule: COC(=O)c1ccccc1/C=[N+](\[O-])C1CCCCC1 [Compound 2, N-Cyclohexyl-C-[2-(methoxycarbonyl)phenyl]nitrone]

EC50 [1]: 500 to 1000 µM
Molecule: COC(=O)c1ccccc1/C=[N+](\[O-])Cc1ccccc1 [Compound 3, N-Benzyl-C-[2-(methoxycarbonyl)phenyl]nitrone]

EC50 [1]: 100 to 500 µM
Molecule: COC(=O)c1c(/C=[N+](\[O-])C(C)(C)C)cc(OC)cc1OC [Compound 4, N-(tert-Butyl)-C-[2-(methoxycarbonyl)-3,5-dimethoxyphenyl]-nitrone]

EC50 [1]: 10 to 100 µM
Molecule: O=C(O)c1ccccc1/C=[N+](\[O-])Cc1ccccc1 [Compound 9, N-Benzyl-C-(2-carboxyphenyl)nitrone]

EC50 [1]: 500 to 1000 µM
Molecule: COc1cc(/C=[N+](\[O-])C(C)(C)C)c(C(=O)O)c(OC)c1 [Compound 10, N-(tert-Butyl)-C-(2-carboxy-3,5-dimethoxyphenyl)nitrone]

EC50 [1]: 10 to 100 µM
Molecule: COc1cc(/C=[N+](\[O-])Cc2ccccc2)c(C(=O)O)c(OC)c1 [Compound 12, N-Benzyl-C-(2-carboxy-3,5-dimethoxyphenyl)nitrone]

EC50 [1]: > 1000 µM
Cmax [2]: 703 ng/mL
clearance [2]: 36.8 mL/min/kg
Vd [2]: 1.83 L/kg
Tmax [2]: 14.4 min
bioavailability [2]: 15.6%
half-life [2]: 34.2 min
Molecule: CN1CCN(S(=O)(=O)c2ccc(/C=[N+](\[O-])C(C)(C)C)cc2)CC1 [Compound 22, N-(tert-Butyl)-C-[4-(4-methyl-piperazine-1-sulfonyl)phenyl]nitrone]

EC50 [1]: > 1000 µM
Cmax [2]: 10 ng/mL
clearance [2]: 29.3 mL/min/kg
Vd [2]: 1.12 L/kg
Tmax [2]: 15 min
bioavailability [2]: 0.85%
half-life [2]: 25.8 min
Molecule: CC(C)(C)/[N+]([O-])=C/c1ccc(S(=O)(=O)Nc2ccc(F)cc2)cc1 [Compound 25, N-(tert-Butyl)-C-[4-(4-fluoro-phenylsulfamoyl)phenyl]nitrone]

EC50 [1]: > 1000 µM
Molecule: COC(=O)c1[nH]c2ccccc2c1/C=[N+](\[O-])C(C)(C)C [Compound 77, N-(tert-Butyl)-C-[2-(methoxycarbonyl)-1H-indol-3-yl]nitrone]

EC50 [1]: > 1000 µM
Molecule: CC(C)(C)[N+]([O-])=Cc1ccccc1 [PBN, C-(phenyl)-N-(tert-butyl)nitrone, reference compound]

EC50 [1]: < 10 µM
Molecule: Cc1c(C)c2c(c(C)c1O)CCC(C)(C(=O)O)O2 (stereo not shown) [Trolox, 6-hydroxy-2,5,7,8-tetramethylchromane-2-carboxylic acid, reference compound]

Source: patent US20100168112A1, “2-Substituted and 4-substituted aryl nitrone compounds” (RENOVIS, INC., priority 2004, published 2010)
